{"source": "patent US20250031689A1", "about": "“CRYOPRESERVATION COMPOSITIONS AND METHODS” (priority 2023, published 2025)", "key": {"[1]": {"test_system": "ovine pre-adipocyte cells", "experiment": "Freeze-thaw cryoprotection of cells suspended in saline, cell yield by ImageJ (FIG. 4)", "assay_type": "cell-based"}, "HEK293 cells": {"test_system": "HEK293 cells", "experiment": "Freeze-thaw (-80° C.) cryoprotection of HEK293 cells, post-thaw attachment/viability", "assay_type": "cell-based", "procedure": "For the studies detailed below, the following procedures were used for preparation of cell cultures prior to cryopreservation: Both HEK-293 and HCT-115 cells were cultured in DMEM medium supplemented with 10% calf serum or 10% fetal calf serum. Two or three days prior to initiating a cryopreservation study, cells were seeded onto 100 mm tissue culture treated dishes in the above described culture medium and placed into a humidified, 5% CO2 incubator and allowed to propagate for 2 or 3 days. Preparation of growing cultures for cryostorage was performed as follows: Medium from 100 mm dishes containing growing cultures prepared as described above was aspirated and replaced with saline containing 0.5 mM EDTA and allowed to incubate for 2-3 minutes. This material was also aspirated and replaced with saline containing 0.25% trypsin and 0.25 mM EDTA. After incubating this second mixture for an additional 3-5 minutes and observing partial detachment of cells from dishes, cells were removed by using inertial force against the dish or by using a stream of saline or base culture medium to dislodge and collect cells from the dish. Cells harvested in this manner were separated by centrifugation (100 g×3 min), resuspended in the desired cryostorage solution, dispensed into polypropylene vials, positioned in microtube racks that were placed into a −80° C. freezer. Cells were kept frozen for 24-168 hours, at which time cryovials were removed to wet ice and cells thawed and plated into appropriate tissue culture vessels, typically 6 or 12 well plates. Cells were visualized with the aid of a Nikon TE300 microscope with an attached camera to allow documentation.\nAs described above, we wished to test the ability of amino acid species to serve as primary cryoprotectants per the definition provided, i.e. at concentrations at which they provided osmotic pressure sufficient to induce cell dehydration. For this purpose we prepared solutions of several amino acids, including alanine, glycine, proline, glutamate, histidine, aspartate, leucine, lysine, phenylalanine, threonine, arginine, and serine. These were standardized to 1M and adjusted to pH 7.1-pH 7.3, where possible or to maximal concentrations when 1M was above the solubility such as histidine and leucine. These solutions were used by dilution in water to test for their ability to serve as a cryoprotectant or diluted to the desired target concentration in a variety of base media including saline, and the two growth mediums described above (DMEM and OptiMeM) in the studies with three different mammalian cell lines described below described below.\nFIG. 1. […] To test this capacity against a well-established cryoprotectant from those described above, HEK293 cultures were prepared as above in one of three base cryostorage mediums as noted below each pair of photographs depicted in panel A: (a) OptiMEM culture medium (ThermoFisher), a serum free growth medium, (b) DMEM culture medium containing 10% serum, or (c) 0.3M glutamate pH 7.2. One sample was prepared in each storage medium as described (labels on the bottom of each vertical pair of photographs), and an additional sample for each was prepared with 7.5% DMSO. 23 hours after plating thawed cells, cultures were visualized with 4× (upper) and 20× objectives (lower). […] The images were also analyzed using NIH Image to count cell numbers, depicted in panel B.\nFIG. 2. […] HEK293 cells were prepared as described above in OptiMEM medium and apportioned into 4 samples containing 0 mM, 100 mM, 200 mM, or 300 mM glutamate (labels below photograph). After completing a freeze-thaw cycle, each sample was plated and visualized 23 hours after plating."}, "cells": {"test_system": "cells", "conditions": "NaCl at concentrations where glutamate acts as a CPA", "protocol": "We developed a workflow that tested cryoprotection of cells suspended in physiological saline (150 mM NaCl), overcoming the need to resuspend centrifuged cells directly in a final cryoprotection buffer. […] Thus, in these studies, trypsinized cells were centrifuged as described above, but resuspended in saline prior to diluting into a test solution. The photographs in FIG. 4A depict representative fields at 4× magnification of 6-well plates seeded with ovine pre-adipocyte cells, frozen in solutions comprised of agents and concentrations indicated to the left of each row. The cells in each field were enumerated by using ImageJ (NIH) to carryout noise reduction and thresholding before enumerating cell particles (FIG. 4B). It should be noted that dilution of the initial saline sample contributed 0.105 M NaCl concentration in addition to the agents indicated to the left. To provide a positive sample, we also tested DMSO at three concentrations (1%, 3%, and 10%). […] Therefore, we also tested binary mixtures as well as a ternary and a quaternary mixture.\nWe ascertained if such synergy might also exist with other well established cryoprotectants such as betaine or trehalose. […]"}, "HCT 115 cells": {"test_system": "HCT 115 cells", "experiment": "Freeze-thaw cryoprotection of HCT 115 cells, crystal violet stain density (cell yield)", "assay_type": "cell-based", "conditions": "glutamate in OptiMEM, 96 hours growth after thaw", "procedure": "FIG. 3. Cryoprotectant activity of glutamate requires concentrations greater than 50 mM. The dose response relationship of glutamate and its ability to impart cryoprotective activity to OptiMeM prompted the question of our findings being extensible to other cell types such as HCT 115 cells (FIG. 2). Cells were prepared as described above in OptiMEM medium containing either no additions, 7.5% DMSO, 50 mM glutamate, 150 mM glutamate, 250 mM glutamate, or 350 mM glutamate. Thawed cells were plated, washed at 24 hours to remove debris, and allowed to grow for a total of 96 hours, at which time they were fixed with 10% formol (15 minutes). Fixed cultures were stained with 0.2% crystal violet for 2 hours, destained in 4 changes of distilled water, dried and scanned on an Epson scanner at 1200 dpi (panel A). The density of stain from each culture, corresponding to cell yield, was quantified using ImageJ (NIH). The density of each culture was plotted in a bar graph and is shown in panel B. The stained 6-well plate containing each culture is shown in panel A, with insets showing a photograph from representative cultures visualized with a 4× objective after staining. The order of the samples in the plate shown in panel A is (left to right, top to bottom): media alone, media+7.5% DMSO, media+50 mM glutamate, media+150 mM glutamate, media+250 mM glutamate, media+350 mM glutamate. […]"}, "[2]": {"test_system": "Cygnus monkey spermatozoa", "conditions": "at 5-10 mM; cited from earlier work"}, "mouse oocytes": {"test_system": "mouse oocytes", "conditions": "2M proline, in the presence of DMSO and ethylene glycol; cited from earlier work"}, "RBCs": {"test_system": "RBCs", "conditions": "1.5M proline, only in the presence of trehalose; cited from earlier work"}}, "data": [{"compound": "C[S+](C)[O-]", "note": "[DMSO, Dimethylsulfoxide]", "values": [{"measurement": "cryoprotection as measured by cell yield", "setting": "[1]; DMSO at 1%, saline, -80° C.", "result": "cryoprotective activity was apparent"}, {"measurement": "cryoprotection as measured by cell yield", "setting": "[1]; DMSO at 3% and 10%, saline, -80° C.", "result": "capable cryoprotective agent"}, {"measurement": "attachment of cells at 23 hours after plating thawed cells", "setting": "HEK293 cells; 7.5% DMSO in OptiMEM or DMEM containing 10% serum", "result": "do attach"}]}, {"compound": "[Cl-].[Na+]", "note": "[NaCl]", "values": [{"measurement": "cryoprotection by increased ionic strength", "setting": "cells", "result": "does not provide any significant cryoprotection"}]}, {"compound": "N[C@@H](CCC(=O)O)C(=O)O", "note": "[glutamate]", "values": [{"measurement": "concentration required for cryoprotectant activity", "setting": "HCT 115 cells", "result": "greater than 50 mM"}, {"measurement": "cryoprotection as measured by cell yield", "setting": "[1]; glutamate as a sole agent, comparable to 3% and 10% DMSO", "result": "significant cryoprotection"}, {"measurement": "post-thaw viability 23 hours after plating", "setting": "HEK293 cells; 100 mM glutamate in OptiMEM", "result": "some extended post-thaw viability"}, {"measurement": "post-thaw viability and attachment 23 hours after plating", "setting": "HEK293 cells; 200 mM and 300 mM glutamate in OptiMEM", "result": "increased viability"}, {"measurement": "entry into the growth cycle compared to cells in medium alone", "setting": "HEK293 cells; 0.3M glutamate in OptiMEM", "result": "improved entry into the growth cycle"}, {"measurement": "attachment of cells at 23 hours after plating thawed cells", "setting": "HEK293 cells; 0.3M glutamate pH 7.2 as sole cryoprotectant", "result": "attachment at least to the level of either medium containing DMSO"}, {"measurement": "post-thaw viability in initial survey of amino acids", "setting": "HEK293 cells; HEK293 cells, compared among several amino acids", "result": "highest degree of post-thaw viability"}]}, {"compound": "NC(=O)CC[C@H](N)C(=O)O", "note": "[glutamine]", "values": [{"measurement": "increase in post-thaw recovery above that obtained with the control", "setting": "[2]", "result": "approximately 20%"}]}, {"compound": "NCC(=O)O", "note": "[glycine]", "values": [{"measurement": "increase in post-thaw recovery above that obtained with the control", "setting": "[2]", "result": "approximately 20%"}]}, {"compound": "O=C(O)[C@@H]1CCCN1", "note": "[proline]", "values": [{"measurement": "increase in post-thaw recovery above that obtained with the control", "setting": "[2]", "result": "approximately 20%"}, {"measurement": "increase in implantation rate", "setting": "mouse oocytes", "result": "6-10%"}, {"measurement": "hemolysis of frozen cells", "setting": "RBCs", "result": "able to reduce hemolysis"}]}]}
